Measurements taken from patent publication US8852657B2, “Chromones as therapeutic agents” (Unigen, Inc., priority 2007, dated 2014).
“Also recorded” adds a separate entry of the source.

Legend:
db/db mice = assay: Weekly fasting glucose levels in db/db mice; assay type: in vivo, mouse; details: GW1929 5 mg/kg, N931 375 mg/kg
Method: Fasting glucose levels of male db/db mice (8 mice in each group) treated with GW1929 (5 mg/kg), N931 (375 mg/kg) and vehicle were measured weekly. Animals were provided with T2018 rodent diet ad libitum except when fasting. Animals were fasted overnight before measurements were taken.

[1] = test system: high fat diet induced C57BL/6J mice; assay: Intraperitoneal glucose tolerance test, UP780 dose-range study; assay type: in vivo, mouse; details: week 3 of daily oral treatment; 30, 60 and 90 minutes; UP780 200 mg/kg, GW1929 5 mg/kg
Method: Once an induction of the disease on animals after 8 weeks of high fat diets was confirmed by monitoring of selected parameters, daily oral treatment was initiated. On each day, the test articles and the positive control GW1929 (Tocris Bioscience, Ellisville, Mo., Batch #2A/58705) were dissolved in 0.5% methylcellulose (Sigma, St. Louise Mo., Lot#116H0857) and delivered at an oral dose of 100, 200 and 400 mg/kg of UP780 (Lot # L1806QMAW-01); 400 mg/kg of Qmatrix® Aloe vera gel powder (QM400, Lot# G6319103-L3) as well as 5 mg/kg of GW1929. As GW1929 was not completely solublized in methylcellulose, it was first dissolved in DMSO (Sigma, St. Louis, Mo., Batch#064K0067). The final concentration of test compounds, including the vehicle, was then adjusted to contain 5% DMSO before drug administration. The carrier vehicle treated animals received 0.5% methylcellulose only. No detectable sign of irritation was observed after each drug or vehicle administration. […]
An intraperitoneal glucose tolerance test was conducted on day 0 (baseline), weeks 3, and 9 after onset of treatment. […] Blood glucose levels were determined at time 0 (before glucose injection), 30, 60, 90, and 120 minutes post glucose delivery. […] Blood glucose levels were determined at time 0 (before insulin injection), 30, 60, 90, and 120 minutes after insulin administration. […]

[2] = test system: high fat diet induced C57BL/6J mice; assay: Fasting blood glucose, UP780 dose-range study; assay type: in vivo, mouse; details: weeks 5 and 7; UP780 200 mg/kg, GW1929 5 mg/kg
Method: (§1) Once an induction of the disease on animals after 8 weeks of high fat diets was confirmed by monitoring of selected parameters, daily oral treatment was initiated. On each day, the test articles and the positive control GW1929 (Tocris Bioscience, Ellisville, Mo., Batch #2A/58705) were dissolved in 0.5% methylcellulose (Sigma, St. Louise Mo., Lot#116H0857) and delivered at an oral dose of 100, 200 and 400 mg/kg of UP780 (Lot # L1806QMAW-01); 400 mg/kg of Qmatrix® Aloe vera gel powder (QM400, Lot# G6319103-L3) as well as 5 mg/kg of GW1929. As GW1929 was not completely solublized in methylcellulose, it was first dissolved in DMSO (Sigma, St. Louis, Mo., Batch#064K0067). The final concentration of test compounds, including the vehicle, was then adjusted to contain 5% DMSO before drug administration. The carrier vehicle treated animals received 0.5% methylcellulose only. No detectable sign of irritation was observed after each drug or vehicle administration.
(§2) As described on Example 12, male C57BL/6J mice were purchased from Jackson Laboratories (Bar Harbor, Me.) at 6 weeks of age. […]
(§3) Fasting blood glucose, total cholesterol and triglyceride levels were measured using 15-20 μl of blood obtained from tail vein. […]

[3] = test system: high fat diet induced C57BL/6J mice; assay: Fasting triglyceride, UP780 dose-range study; assay type: in vivo, mouse; details: after 7 weeks of daily oral treatment; GW1929 5 mg/kg
Method: as §1, §2, §3

[4] = Body weight, UP780 dose-range study; assay type: in vivo, mouse; details: GW1929 5 mg/kg, Qmatrix 400 mg/kg, UP780 100, 200 and 400 mg/kg; weekly
Method: as §1, §2
Three or four male C57BL/6J mice were housed in a mouse cage that had sections for feed and water. Feed intake was determined daily by measuring the difference between previously weighed high fat pellets value and what was left on the given day. […]

diabetic animal models = details: administered orally; Brown et al. (1999), Way et al. (2001); cited from earlier work

CN(CCOc1ccc(C[C@H](Nc2ccccc2C(=O)c2ccccc2)C(=O)O)cc1)c1ccccn1 [GW1929, N-(2-Benzoylphenyl)-O-[2-(methyl-2-pyridinylamino)ethyl]-L-tyrosine]
course of fasting glucose level during 10-week treatment (db/db mice; starting from week 5): maintain the glucose levels at the baseline level | fasting blood glucose levels compared to vehicle (db/db mice; weeks 6, 7, 9 and 10, P<0.05): significantly lower | glucose clearance in intraperitoneal glucose tolerance test vs vehicle [1]: statistically significant glucose clearance | fasting glucose level compared to vehicle [2]: statistically significant lower fasting glucose level | percent reduction of fasting triglyceride level to vehicle [3]: 22.7% | body weight gain difference between groups [4]: no significant body weight gain or feed consumption differences; also recorded: No statistically significant body weight gain difference | glucose, fatty acids and triglyceride levels (diabetic animal models): decreases glucose, fatty acids and triglyceride levels
